The values below come from patent US20070276034A1, “Compounds, compositions and methods for the treatment of synucleinopathies” (priority 2002, published 2007).

Like-named read-outs stand apart in the source and are kept apart here.

Format in all cases: biochemical
One assay concerns the target T1, Aβ 1-42 fibrils (Homo sapiens, UniProt P05067).
T1 construct: purchased Bachem Inc
As to the kind of experiment: Thioflavin T fluorometry - disruption of pre-formed Aβ 1-42 Alzheimer's fibrils. The following applies: 25 μM pre-fibrillized Aβ 1-42, 37° C., 3 days; for inhibition: read-out: % Inhibition Aβ (result ± S.D.). In a few lines:
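Pre-fibrillized Aβ1-42 (25 µM) incubated 3 days at 37 °C alone or with compound at Aβ:compound weight ratios 1:1 to 1:0.001. Remaining fibrils quantified by Thioflavin T fluorescence (ex 444/em 485 nm) in phosphate buffer pH 6.8, blank-subtracted for buffer or compound alone.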

The target in assay [1] is T2, IAPP fibrils (Homo sapiens, UniProt P10997).
T2 construct: purchased Bachem Inc
T2 sequence (P10997 34-70 limits assumed): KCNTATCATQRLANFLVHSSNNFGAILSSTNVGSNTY
In words: Thioflavin T fluorometry - disruption of type 2 diabetes IAPP fibrils. The conditions noted are these: 25 μM pre-fibrillized IAPP, 37° C., 3 days; for inhibition: read-out: % Inhibition IAPP (result ± S.D.). The procedure, abridged:
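Pre-fibrillized human IAPP (25 μM) incubated 3 days at 37 °C alone or with compound at IAPP:compound weight ratios of 1:1 to 1:0.001. Mixtures then mixed with Thioflavin T in phosphate buffer pH 6.8; fluorescence read at 485 nm (ex 444 nm) after blank subtraction.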

For assay [2], the target named is T2, IAPP fibrils. As to the kind of experiment: Congo red binding assay with IAPP fibrils. The conditions noted are these: 3-day incubation. The procedure, abridged:
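Congo red staining of washed 0.2 μm filters measured the aggregated IAPP retained after a 3-day co-incubation with compound or EDTA. Weight ratios IAPP:compound were 1:1, 1:0.1, 1:0.01 or 1:0.001; loss of color relative to compound-free IAPP was scored.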

The next assay concerns the target T3, NAC fibrils (Homo sapiens, UniProt P37840).
T3 construct: NAC is a 35-amino acid fragment of α-synuclein; purchased Bachem Inc
As to the kind of experiment: Thioflavin T fluorometry - disruption of Parkinson's disease NAC fibrils. The conditions noted are these: 3 days; for inhibition / % Inhibition NAC (result ± S.D.): 25 μM pre-fibrillized NAC, 37° C.; for inhibition: read-out: % Inhibition NAC (result ± S.D.); for disruption/disassembly of pre-formed NAC fibrils (in words): all concentrations tested (ratios 1:1 to 1:0.001). How it is done: In this assay, Thioflavin T binds specifically to NAC fibrils, and this binding produces a fluorescence enhancement at 485 nm that is directly proportional to the amount of NAC fibrils present. The higher the fluorescence, the greater the amount of NAC fibrils present (Naki et al, Lab. Invest. 65:104-110, 1991; Levine III, Protein Sci. 2:404-410, 1993; Amyloid: Int. J. Exp. Clin. Invest. 2:1-6, 1995).
In this study, 25 μM of pre-fibrillized NAC (Bachem Inc) was incubated at 37° C. for 3 days either alone or in the presence of dihydroxy synthetic analog compounds #1, 3, 23, 26, 52, 63, 66, 67, or EDTA (at NAC:test compound weight ratios of 1:1, 1:0.1, 1:0.01 or 1:0.001). Following 3-days of co-incubation, 50 βl of each incubation mixture was transferred into a 96-well microtiter plate containing 150 μl of distilled water and 50 μl of a Thioflavin T solution (i.e. 500 mM Thioflavin T in 250 mM phosphate buffer, pH 6.8). The fluorescence was read at 485 nm (444 nm excitation wavelength) using an ELISA plate fluorometer after subtraction with buffer alone or compound alone, as blank.

Where [3] appears, read: Aβ:test compound wt/wt ratio 1:0.001.
Setting [4] is: Aβ:test compound wt/wt ratio 1:0.01.
[5] abbreviates: Aβ:test compound wt/wt ratio 1:0.1.
Setting [6] is: Aβ:test compound wt/wt ratio 1:1.
Setting [7] is: IAPP:test compound wt/wt ratio 1:0.001.
Where [8] appears, read: IAPP:test compound wt/wt ratio 1:0.01.
Where [9] appears, read: IAPP:test compound wt/wt ratio 1:0.1.
Where [10] appears, read: IAPP:test compound wt/wt ratio 1:1.
The mark [11] stands for this setting: NAC:test compound wt/wt ratio 1:0.001.
Setting [12] is: NAC:test compound wt/wt ratio 1:0.01.
[13] abbreviates: NAC:test compound wt/wt ratio 1:0.1.
The mark [14] stands for this setting: NAC:test compound wt/wt ratio 1:1.

T1 sequence (P05067 672-713): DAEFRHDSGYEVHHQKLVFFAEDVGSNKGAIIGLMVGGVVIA

`O=C(CCC(=O)NCc1ccc(O)c(O)c1)NCc1ccc(O)c(O)c1` [Compound 67, succinic acid bis(3,4-dihydroxybenzylamide)]: the inhibition worked out at 13.7 ± 6.05% at Aβ 1-42 fibrils (setting [3]); 34 ± 14.1% at Aβ 1-42 fibrils (setting [4]); 50.9 ± 8.32% on Aβ 1-42 fibrils (setting [5]); 98.3 ± 2.19% at Aβ 1-42 fibrils (setting [6]); 16.1 ± 12.4% at IAPP fibrils [1] (setting [7]); 34.8 ± 1.87% at IAPP fibrils [1] (setting [8]). Also, the inhibition at IAPP fibrils [1] (setting [9]) turned out to be 81.4 ± 6.96%; on IAPP fibrils [1] (setting [10]), 98.6 ± 0.22%; on NAC fibrils (setting [11]) it was 11.9 ± 16%; at NAC fibrils (setting [12]), 30.6 ± 5.75%; at NAC fibrils (setting [13]), 50 ± 7.03%; on NAC fibrils (setting [14]), 97.4 ± 1.19%. Also, the “% Inhibition IAPP (result ± S.D.), Congo red binding” value on IAPP fibrils [2] (setting [7]) came out at 0.0 ± 3.45%; at IAPP fibrils [2] (setting [8]), 10.6 ± 1.29%; at IAPP fibrils [2] (setting [9]), 5.5 ± 2.52%; on IAPP fibrils [2] (setting [10]), 26.3 ± 2.76%. In addition, the “disruption/disassembly of pre-formed NAC fibrils (in words)” value (“disruption/disassembly” below) on NAC fibrils is “dose-dependent disruption/disassembly”.
Take `O=C(Nc1ccc(O)c(O)c1)c1ccc(O)c(O)c1` [Compound 51, 3,4-dihydroxybenzoic acid 3,4-dihydroxyanilide]: the inhibition on Aβ 1-42 fibrils (setting [3]) turned out to be 29 ± 25.2%; at Aβ 1-42 fibrils (setting [4]) it was 55.3 ± 5.23%; on Aβ 1-42 fibrils (setting [5]), 94.9 ± 0.24%; at Aβ 1-42 fibrils (setting [6]), 99.4 ± 0.05%; at IAPP fibrils [1] (setting [7]) it was 11.8 ± 6.45%; at IAPP fibrils [1] (setting [8]), 56.6 ± 1.69%. In addition, the values for the inhibition at IAPP fibrils [1] (setting [9]) and on IAPP fibrils [1] (setting [10]) were 96.6 ± 1% and 99.9 ± 0.11%, respectively. Moreover, the “% Inhibition IAPP (result ± S.D.), Congo red binding” value on IAPP fibrils [2] (setting [7]) is given as 1.6 ± 1.01%; on IAPP fibrils [2] (setting [8]), 3.6 ± 2.59%; at IAPP fibrils [2] (setting [9]) it was 27.5 ± 3.49%; on IAPP fibrils [2] (setting [10]), 55.6 ± 1.48%.
For the molecule `Oc1ccc(Cc2ccc(O)c(O)c2)cc1O` [Compound 3, 3,4,3′,4′-tetrahydroxydiphenylmethane], the “% Inhibition Aβ (result ± S.D.)” value was found to be 5.5 ± 1.99% at Aβ 1-42 fibrils (setting [3]), 53.1 ± 1.67% on Aβ 1-42 fibrils (setting [4]), 57.8±6.36% on Aβ 1-42 fibrils (setting [5]) and 99.5 ± 0.10% at Aβ 1-42 fibrils (setting [6]). Besides, the “% Inhibition IAPP (result ± S.D.)” value at IAPP fibrils [1] (setting [7]) was 30.7 ± 6.71%; at IAPP fibrils [1] (setting [8]), 79.9±1.47%; on IAPP fibrils [1] (setting [9]), 97.7±0.19%; at IAPP fibrils [1] (setting [10]) it was 100 ± 0.20%. In addition, the “% Inhibition IAPP (result ± S.D.), Congo red binding” value on IAPP fibrils [2] (setting [7]) came out at 11.1 ± 5.26%; at IAPP fibrils [2] (setting [8]), 16.3 ± 1.13%; at IAPP fibrils [2] (setting [9]) it was 37.9±3.10%; at IAPP fibrils [2] (setting [10]), 55.5±2.68%. In addition, the “% Inhibition NAC (result ± S.D.)” value turned out to be 67.3 ± 6.37% at NAC fibrils (setting [11]), 93.9±0.77% on NAC fibrils (setting [12]), 91.0±1.99% on NAC fibrils (setting [13]) and 98.0 ± 1.78% on NAC fibrils (setting [14]). Further, the “disruption/disassembly” value at NAC fibrils is given as “dose-dependent disruption/disassembly”.
As to `O=C(Nc1ccc(O)c(O)c1)C(=O)Nc1ccc(O)c(O)c1` [Compound 63, oxalic acid bis(3,4-dihydroxyanilide)], the inhibition on Aβ 1-42 fibrils (setting [3]) is 1.6 ± 9.47%; at Aβ 1-42 fibrils (setting [4]), 57.5 ± 10.6%; at Aβ 1-42 fibrils (setting [5]) it was 23.6 ± 25.8%; on Aβ 1-42 fibrils (setting [6]) it was 85.3 ± 0.91%; on IAPP fibrils [1] (setting [7]), 19 ± 0.3%; at IAPP fibrils [1] (setting [8]), 56.2 ± 8.77%. The inhibition at IAPP fibrils [1] (setting [9]) was found to be 84.2 ± 1.16%; on IAPP fibrils [1] (setting [10]), 94.9 ± 0.65%; on NAC fibrils (setting [11]), 17.3 ± 12.6%; at NAC fibrils (setting [12]) it was 33 ± 1.69%; on NAC fibrils (setting [14]) it was 45.6 ± 31%. The “% Inhibition IAPP (result ± S.D.), Congo red binding” value was found to be 0.0 ± 2.25% at IAPP fibrils [2] (setting [7]), 11.7 ± 2.26% at IAPP fibrils [2] (setting [8]), 4.5 ± 1.62% at IAPP fibrils [2] (setting [9]) and 15.4 ± 1.34% on IAPP fibrils [2] (setting [10]). For the same molecule, the “disruption/disassembly” value on NAC fibrils is reported as “dose-dependent disruption/disassembly”.
Consider `O=C(NCc1ccc(O)c(O)c1)C(=Cc1ccc(O)c(O)c1)NC(=O)c1ccc(O)c(O)c1` [Compound 21, α-(3,4-dihydroxybenzamido)-3,4-dihydroxycinnamic acid 3,4-dihydroxybenzyl amide], for which the inhibition is 8.9 ± 2.13% at Aβ 1-42 fibrils (setting [3]); 48.2 ± 8.29% on Aβ 1-42 fibrils (setting [4]); 81 ± 1.31% on Aβ 1-42 fibrils (setting [5]); 98.6 ± 0.54% at Aβ 1-42 fibrils (setting [6]); 5.4 ± 15.4% on IAPP fibrils [1] (setting [7]); 25.8 ± 3.61% at IAPP fibrils [1] (setting [8]). Moreover, the inhibition worked out at 85.4 ± 0.86% at IAPP fibrils [1] (setting [9]) and 98.5 ± 0.06% at IAPP fibrils [1] (setting [10]). Moreover, the “% Inhibition IAPP (result ± S.D.), Congo red binding” value on IAPP fibrils [2] (setting [7]) was 0.0 ± 2.10%; at IAPP fibrils [2] (setting [8]) it was 5.1 ± 4.53%; on IAPP fibrils [2] (setting [9]) it was 10.4 ± 3.53%; on IAPP fibrils [2] (setting [10]), 35.9 ± 0.21%.
For `O=C(Nc1ccc(O)c(O)c1)Nc1ccc(O)c(O)c1` [Compound 76, 1,3-bis(3,4-dihydroxyphenyl)urea], the inhibition on Aβ 1-42 fibrils (setting [3]) is 12.2 ± 5.98%; at Aβ 1-42 fibrils (setting [4]), 40.9 ± 3.76%; on Aβ 1-42 fibrils (setting [5]) it was 86.5 ± 1.18%; on Aβ 1-42 fibrils (setting [6]), 99.3 ± 1.35%; on IAPP fibrils [1] (setting [7]), 9 ± 0.32%; at IAPP fibrils [1] (setting [8]) it was 41.5 ± 6.67%. Also, the inhibition turned out to be 87.5 ± 1.89% at IAPP fibrils [1] (setting [9]) and 99.6 ± 1.01% at IAPP fibrils [1] (setting [10]). For the same molecule, the “% Inhibition IAPP (result ± S.D.), Congo red binding” value on IAPP fibrils [2] (setting [7]) worked out at 3.4 ± 1.07%; at IAPP fibrils [2] (setting [8]) it was 14.2 ± 2.25%; at IAPP fibrils [2] (setting [9]), 16.5 ± 2.60%; at IAPP fibrils [2] (setting [10]), 53.9 ± 5.44%.

The inhibition is the share of the control response that was lost under treatment.
